Laboratory results as given in PMC6692420, “Validation of [^125I]CPCR4.3 as an investigative tool for the sensitive and specific detection of hCXCR4 and mCXCR4 expression in vitro and in vivo” (EJNMMI Research, 2019).
Non-standard residues stand in square brackets, D forms with d. Residues, ends and D or L forms follow the SMILES beside them. dAla(N-(6-guanidinohexyl)) = C[C@@H](NCCCCCCNC(=N)N)C(=O)O; dTyr(3-I) = N[C@H](Cc1ccc(O)c(I)c1)C(=O)O; 2Nal = N[C@@H](Cc1ccc2ccccc2c1)C(=O)O

How the values were obtained:
hCXCR4 = target: T1, hCXCR4 (Homo sapiens, UniProt P61073); assay: Competitive binding assay (IC50) on Jurkat cells with [^125I]CPCR4.3 as radioligand; details: for IC50: Jurkat human T cell leukemia cells, 200,000 cells/sample, radioligand [^125I]CPCR4.3
T1 construct: endogenous hCXCR4 (Jurkat); endogenous in cells
T1 sequence (P61073 whole entry): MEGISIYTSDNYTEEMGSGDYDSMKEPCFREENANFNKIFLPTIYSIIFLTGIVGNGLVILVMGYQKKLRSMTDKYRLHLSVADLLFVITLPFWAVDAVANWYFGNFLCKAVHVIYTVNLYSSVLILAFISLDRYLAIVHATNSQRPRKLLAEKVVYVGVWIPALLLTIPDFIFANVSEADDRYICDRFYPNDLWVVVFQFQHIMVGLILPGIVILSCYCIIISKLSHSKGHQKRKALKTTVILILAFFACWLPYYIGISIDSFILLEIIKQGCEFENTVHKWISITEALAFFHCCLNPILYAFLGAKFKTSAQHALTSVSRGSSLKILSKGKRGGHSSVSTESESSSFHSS
Description: To allow data normalization, [^natGa] […] Experiments were performed in triplicate with n = 3 per concentration in each experiment. IC50 values were calculated using GraphPad Prism 6.01 (Graph Pad Software, San Diego, USA).

mCXCR4 = target: T2, mCXCR4 (Mus musculus, UniProt P70658); assay: Competitive binding assay (IC50) on Eμ-Myc 1080 mouse lymphoma cells with [^125I]CPCR4.3 as radioligand; details: Eμ-Myc1080 mouse B cell lymphoma cells, 200,000 cells/sample, radioligand [^125I]CPCR4.3
T2 construct: endogenous in cells; host or cells: Eμ-myc 1080 mouse B cell lymphoma cells
T2 sequence (P70658 whole entry): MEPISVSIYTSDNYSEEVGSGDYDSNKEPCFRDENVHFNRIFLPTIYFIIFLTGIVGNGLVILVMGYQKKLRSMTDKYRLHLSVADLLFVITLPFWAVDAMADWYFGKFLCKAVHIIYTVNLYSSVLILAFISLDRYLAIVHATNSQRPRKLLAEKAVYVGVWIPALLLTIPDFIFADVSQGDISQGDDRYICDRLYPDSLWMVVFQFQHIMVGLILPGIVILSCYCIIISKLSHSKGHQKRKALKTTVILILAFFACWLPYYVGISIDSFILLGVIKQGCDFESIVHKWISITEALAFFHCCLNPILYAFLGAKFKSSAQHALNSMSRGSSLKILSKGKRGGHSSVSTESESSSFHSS
Description: To allow data normalization, [^natGa] Pentixafor and FC-131 were included as references in this study. Experiments were performed in triplicate with n = 3 per concentration in each experiment. IC50 values were calculated using GraphPad Prism 6.01 (Graph Pad Software, San Diego, USA).

With `C[C@@H]1C(=O)N[C@@H](CCCNC(=N)N)C(=O)N[C@@H](Cc2ccc3ccccc3c2)C(=O)NCC(=O)N[C@H](Cc2ccc(O)cc2)C(=O)N1CCCCCCNC(=N)N` [CPCR4.3, cyclo(-D-Tyr^1-D-[N-hexyl-6-guanidino]Ala^2-Arg^3-Nal^4-Gly^5-)] (cyclo([dY][dAla(N-(6-guanidinohexyl))]R[2Nal]G)) the IC50 (hCXCR4) was 2.8 ± 1.1 nM and the IC50 (mCXCR4) was 0.8 ± 0.1 nM.
`N=C(N)NCCC[C@@H]1NC(=O)[C@H](CCCNC(=N)N)NC(=O)[C@@H](Cc2ccc(O)cc2)NC(=O)CNC(=O)[C@H](Cc2ccc3ccccc3c2)NC1=O` [FC-131] was tested, and the “hCXCR4 affinity higher than [^natGa]Pentixafor” value (hCXCR4; assay conditions of this study) was “more than 3 fold” and the IC50 (mCXCR4) was 119 ± 69 nM.
`C[C@@H]1C(=O)N[C@@H](CCCNC(=N)N)C(=O)N[C@@H](Cc2ccc3ccccc3c2)C(=O)NCC(=O)N[C@H](Cc2ccc(O)c(I)c2)C(=O)N1CCCCCCNC(=N)N` [iodo-CPCR4.3] (cyclo([dTyr(3-I)][dAla(N-(6-guanidinohexyl))]R[2Nal]G)) showed an IC50 (hCXCR4) of 5.4 ± 1.5 nM and an IC50 (mCXCR4) of 4.9 ± 1.7 nM.
For “Ga-Pentixafor: natGa complex of the cyclic pentapeptide Pentixafor, hCXCR4 selective reference ligand”, the IC50 (mCXCR4) was > 1000 nM.
“Ga-Pentixafor: natGa complex of the cyclic pentapeptide Pentixafor, hCXCR4 selective reference ligand (YXRXG; Head-to-tail cyclic pentapeptide; The parent CPCR4.3 is printed as cyclo(-D-Tyr1-D-[N-hexyl-6-guanidino]Ala2-Arg3-Nal4-Gly5-); the text states that Pentixafor has D-Orn at position 2 instead of the N-)” was tested, and the IC50 (hCXCR4) was 42.4 ± 11.6 nM.
